Experimental data taken from patent US20160303102A1, “PROCESS FOR THE PRODUCTION OF DRUG FORMULATIONS FOR ORAL ADMINISTRATION” (Alrise Biosystems GmbH, priority 2013, published 2016).
Values after ≈ are worked out from the molar mass of the structure shown. Counter-ions that a name gives are not always drawn. Marks after values point to notes of the source that are not given here.

How the values were obtained:
[1] = Solubility of exemplary therapeutic agents in organic solvents
From the text: In this context, the solubility is indicated as the weight of the dissolved substance (the solute) per volume of the solvent (i.e. the volume of solvent added to the solute).

[2] = 20° C.; cited from earlier work

Row | Solubility ([1]; solvent Acetone) | Solubility ([1]; solvent Benzylalcohol) | Solubility ([1]; solvent DMSO) | Solubility ([1]; solvent EMK) | Solubility ([1]; solvent Ethanol) | Solubility ([1]; solvent Ethyl acetate) | Solubility ([1]; solvent Ethyl formate) | Solubility ([1]; solvent Methyl acetate) | Solubility ([1]; solvent NMP) | Solubility ([1]; solvent THF) | SMILES | Solubility in water [2] | also measured
1 | soluble | soluble | soluble | soluble | soluble | soluble | soluble | soluble | soluble | soluble | CN1C[C@H]2c3ccccc3Oc3ccc(Cl)cc3[C@@H]2C1 (relative stereo) [Asenapine maleate, (3aRS,12bRS)-rel-5-Chloro-2,3,3a,12b-tetrahydro-2-methyl-1H-dibenz[2,3:6,7]oxepino[4,5-c]pyrrole] |  | Solubility ([1]; solvent Dimethylcarbonate): soluble; Solubility ([1]; solvent Glycofurol): soluble; Solubility ([1]; solvent Iso propanol): non-soluble; Solubility ([1]; solvent Isopropyl acetate): non-soluble; Solubility ([1]; solvent Isopropyl formate): soluble
2 |  |  |  |  |  |  |  |  |  |  | CC(C)=O [Aceton] | soluble | 
3 | soluble | soluble | soluble | soluble | non-soluble | soluble | soluble | soluble | soluble | soluble | O=C1CCc2ccc(OCCCCN3CCN(c4cccc(Cl)c4Cl)CC3)cc2N1 [Aripiprazole] |  | Solubility ([1]; solvent Benzyl benzoate): soluble; Solubility ([1]; solvent Glycofurol): soluble; Solubility ([1]; solvent Isopropyl acetate): non-soluble; Solubility ([1]; solvent Isopropyl formate): soluble; Solubility ([1]; solvent Triacetin): non-soluble
4 |  |  |  |  |  |  |  |  |  |  | CCCCOC=O [Butyl formate] | slow decomposition | 
5 |  |  |  |  |  |  |  |  |  |  | ClCCl [Dichlormethan] | 20 g/L (≈ 235 mM) | 
6 |  |  |  |  |  |  |  |  |  |  | COC(=O)OC [Dimethyl Carbonate] | 139 g/L (≈ 1540 mM) | 
7 |  |  |  |  |  |  |  |  |  |  | CCOC(C)=O [Ethyl acetate] | 85.3 g/L | 
8 |  |  |  |  |  |  |  |  |  |  | CCOC=O [Ethyl formate] | 105*** g/L | 
9 |  |  |  |  |  |  |  |  |  |  | CC(C)OC=O [Isopropyl formate] | slow decomposition | 
10 |  |  |  |  |  |  |  |  |  |  | COC(C)=O [Methyl acetate] | 319 g/L | 
11 |  |  |  |  |  |  |  |  |  |  | CC(=O)C(C)C [Methylisopropylketone] | 6 g/L (≈ 69.7 mM) | 
12 | non-soluble | soluble | soluble | non-soluble | non-soluble | non-soluble | non-soluble | non-soluble | soluble | soluble | OCCOCCN1CCN(C2=Nc3ccccc3Sc3ccccc32)CC1 [Quetiapine fumarate, 2-(2-(4-dibenzo[b,f][1,4]thiazepine-11-yl-1-piperazinyl)ethoxy)ethanol] |  | Solubility ([1]; solvent Glycofurol): soluble; Solubility ([1]; solvent Triacetin): non-soluble
13 | non-soluble | non-soluble | soluble | non-soluble | non-soluble | non-soluble | non-soluble | non-soluble | soluble | non-soluble | O=C(c1ccc(OCCN2CCCCC2)cc1)c1c(-c2ccc(O)cc2)sc2cc(O)ccc12 [Raloxifene HCl, [6-hydroxy-2-(4-hydroxyphenyl)-benzothiophen-3-yl]-[4-[2-(1-piperidyl)ethoxy]phenyl]-methanone] |  | Solubility ([1]; solvent Benzyl formate): non-soluble; Solubility ([1]; solvent Dichloromethane): non-soluble; Solubility ([1]; solvent Isopropyl acetate): non-soluble; Solubility ([1]; solvent Isopropyl formate): non-soluble; Solubility ([1]; solvent Propyl formate): non-soluble
14 | soluble | soluble | soluble | soluble | non-soluble | soluble | soluble | soluble | soluble | soluble | CC(C)c1nc(N(C)S(C)(=O)=O)nc(-c2ccc(F)cc2)c1/C=C/[C@@H](O)C[C@@H](O)CC(=O)O [Rosuvastatin Ca, (3R,5S,6E)-7-[4-(4-fluorophenyl)-2-(N-methylmethanesulfonamido)-6-(propan-2-yl)pyrimidin-5-yl]-3,5-dihydroxyhept-6-enoic acid] |  | Solubility ([1]; solvent Glycofurol): soluble; Solubility ([1]; solvent Isopropyl acetate): non-soluble; Solubility ([1]; solvent Isopropyl formate): non-soluble; Solubility ([1]; solvent Triacetin): non-soluble
15 |  |  |  |  |  |  |  |  |  |  | CCCOC=O [n- Propyl formate] | 28 g/L | 
16 |  |  |  |  |  |  |  |  |  |  | CCCOC(C)=O [n-Propyl acetate] | 21.2 g/L | 
17 |  |  |  |  |  |  |  |  |  |  | CC(=O)OC(C)(C)C [tert. Butyl acetate] | insoluble | 

Row | SMILES | Solubility ([1]; solvent Acetone) | Solubility ([1]; solvent Benzylalcohol) | Solubility ([1]; solvent DMSO) | Solubility ([1]; solvent EMK) | Solubility ([1]; solvent Ethanol) | Solubility ([1]; solvent Ethyl acetate) | Solubility ([1]; solvent Ethyl formate) | Solubility ([1]; solvent Methyl acetate) | Solubility ([1]; solvent NMP) | Solubility ([1]; solvent THF) | Solubility in water [2] | also measured
18 | CNCC[C@H](Oc1cccc2ccccc12)c1cccs1 [Duloxetine HCl, (+)-(S)—N-Methyl-3-(naphthalen-1-yloxy)-3-(thiophen-2-yl)propan-1-amine] | non-soluble | soluble | soluble | non-soluble | soluble | non-soluble | non-soluble | non-soluble | soluble | soluble |  | Solubility ([1]; solvent Benzyl benzoate): non-soluble; Solubility ([1]; solvent Glycofurol): soluble; Solubility ([1]; solvent Methyl benzoate): non-soluble; Solubility ([1]; solvent Triacetin): non-soluble
